Calls of active or inactive are those of the source. No cut-off for these calls is given here.

Assay [1] relates to Radical scavenging activity. The assay is described as follows: Antioxidant activity assessed as DPPH-radical scavenging activity. The class given is functional. (In general: The DPPH test is a chemical assay of radical scavenging.)
Assay [2] has as its system Ileum. The assay can be described thus: Inhibition of prostaglandin E1-induced contraction in Hartley guinea pig ileum at 16 umol by modified Magnus assay. The class given is functional, tissue-based. The following applies: Cavia porcellus.
Assay [3] has as its system Ileum. The assay can be described thus: Inhibition of prostaglandin E2-induced contraction in Hartley guinea pig ileum at 48 umol by modified Magnus assay. The class given is functional, tissue-based. To be noted: Cavia porcellus.
For assay [4], the system named is Ileum. The assay is described as follows: Inhibition of prostaglandin E1-induced contraction in Hartley guinea pig ileum at 126 umol by modified Magnus assay. The class given is functional, tissue-based. To be noted: Cavia porcellus.
Assay [5] deals with Ileum. The assay can be described thus: Inhibition of prostaglandin E2-induced contraction in Hartley guinea pig ileum at 76 umol by modified Magnus assay. Type of assay: functional, tissue-based. To be noted: Cavia porcellus.
For assay [6], the system named is Ileum. The assay is described as follows: Inhibition of prostaglandin E1-induced contraction in Hartley guinea pig ileum at 39 umol by modified Magnus assay. The following applies: Cavia porcellus. The class given is functional, tissue-based.
The test system of assay [7] is Ileum. The assay is described as follows: Inhibition of prostaglandin E2-induced contraction in Hartley guinea pig ileum at 64 umol by modified Magnus assay. The class given is functional, tissue-based. The following applies: Cavia porcellus.

As to `C[C@@H]1CC(=O)[C@H]2C(C)(C)[C@@H](O)CC[C@]2(C)[C@@]12CC[C@@]1(CCOC1O)O2` (mixture of isomers), in assay [1], the outcome was inactive.
In the case of `C=C[C@]1(C)C=C2C(=O)C[C@H]3C(C)(C)[C@@H](O[C@@H]4O[C@H](CO)[C@@H](O)[C@H](O)[C@H]4O[C@@H]4O[C@H](CO)[C@@H](O)[C@H](O)[C@H]4O)CC[C@]3(C)[C@H]2CC1`, the result with Ileum [2] and with Ileum [3] was Active. Besides, the result in assay [1] was inactive.
With `C=CC(C)(O)CC(OC(C)=O)[C@]1(C)C2=C([C@H](OC(C)=O)C[C@@H]1C)[C@@](C)(COC(C)=O)C(=O)CC2` (stereo partly drawn), the result in the assay with Ileum [4] and in the assay on Ileum [5] was Active. The outcome in assay [1] was inactive.
With `C=C[C@]1(C)C=C2C(=O)C[C@H]3C(C)(C)[C@@H](O[C@@H]4O[C@H](CO)[C@@H](O)[C@H](O)[C@H]4O[C@@H]4O[C@H](CO[C@@H]5O[C@H](CO)[C@@H](O)[C@H](O)[C@H]5O)[C@@H](O)[C@H](O)[C@H]4O)CC[C@]3(C)[C@H]2CC1`, the result in the assay with Ileum [4] and in the assay on Ileum [5] was Active. Moreover, in assay [1], the result was inactive.
Consider `C=CC(C)(O)CC(O)[C@]1(C)C2=C([C@H](OC(C)=O)C[C@@H]1C)[C@@](C)(COC(C)=O)C(=O)CC2` (stereo partly drawn), for which, in assay [1], the result was inactive.
In the case of `C=C[C@]1(C)C=C2C(=O)C[C@H]3C(C)(C)[C@@H](O[C@@H]4O[C@H](CO[C@@H]5O[C@H](CO)[C@@H](O)[C@H](O)[C@H]5O)[C@@H](O)[C@H](O)[C@H]4O[C@@H]4O[C@@H](C)[C@H](O)[C@@H](O)[C@H]4O)CC[C@]3(C)[C@H]2CC1`, the outcome in the assay on Ileum [6] and in the assay with Ileum [7] was Active. The result in assay [1] was inactive.
With `CC1(C)CC[C@]2(C(=O)O)CC[C@]3(C)C(=CC[C@@H]4[C@@]5(C)C[C@@H](O)[C@H](O)C(C)(C)[C@@H]5CC[C@]43C)[C@@H]2C1`, the outcome with Ileum [6] and with Ileum [7] was Active. For the same compound, in assay [1], the result was inactive.
Turning to `O=C(N[C@H](COC(=O)[C@H](Cc1ccccc1)NC(=O)c1ccccc1)Cc1ccccc1)c1ccccc1`, in assay [1], the outcome was inactive.
